Patent US8039490B2, “Benzoyl-piperidine derivatives as dual modulators of the 5-HT2A and D3 receptors” (Hoffmann-La Roche Inc., priority 2006, dated 2011)

Key:
[1] = target: T1, human D2 dopamine receptor (Homo sapiens, UniProt P14416); assay: Radioligand binding, human D2 receptor ([3H]-spiperone); details: third value of the cell; membranes of transfected HEK-293 EBNA cells, 0.7 nM [3H]-spiperone; read-out: Ki(nM) D3/5HT2A/D2: D2
T1 construct: expressed in transfected cells; host or cells: HEK-293 EBNA cells (transient transfection), membrane preparation
Description: (§1) The cells were harvested 48 h post-transfection, washed three times with cold PBS and stored at −80° C. prior to use. The pellet was suspended in cold 50 mM Tris-HCl buffer containing 10 mM EDTA (pH 7.4) and homogenized with a Polytron (Kinematica AG, Basel, Switzerland) for 20-30 sec at 12.000 rpm. After centrifugation at 48.000×g for 30 min at 4° C., the pellet was resuspended in cold 10 mM Tris-HCl buffer containing 0.1 mM EDTA (pH 7.4), homogenized, and centrifuged as above. This pellet was further resuspended in a smaller volume of ice cold 10 mM Tris-HCl buffer containing 0.1 mM EDTA (pH 7.4) and homogenized with a Polytron for 20-30 sec at 12.000 rpm. The protein content of this homogenate was determined with the Bio-Rad (Bradford) Protein Assay (Biorad Laboratories GmbH, München, Germany) according to the instructions of the manufacturer using gamma globulin as the standard. This homogenate was stored at −80° C. in aliquots and thawed immediately prior to use.
(§2) Aliquots of membrane preparations were thawed at RT, resupended in assay buffer (D2, D3: 50 mM Tris-HCl, 120 mM NaCl, 5 mM MgCl2, 1 mM EDTA, 5 mM KCl, 1.5 mM CaCl2, pH=7.4; 5-HT2A: 50 mM Tris-HCl, 10 mM MgCl2, 1 mM EGTA, pH=7.4), homogenized with a Polytron for 20-30 sec at 12.000 rpm and adjusted to a final concentration of approximately 7.5 μg protein/well (D2, D3) and 15 μg protein/well (5-HT2A), respectively.
(§3) The binding affinity (Ki) of the compounds was determined using radioligand binding. […] The nonspecific binding was determined with equally composed reaction mixtures in the presence of 10 μM unlabelled spiperone. Per well 45 μl of Microscint 40 (Perkin Elmer, Schwerzenbach, Switzerland) was added, plates for sealed, shaken for 20 min and counted for 3 min on a Topcount Microplate Scintillation Counter (Canberra Packard SA, Zürich, Switzerland) with quenching correction.
(§4) The CPM value for each duplicate of a concentration of competing compound was averaged (y1), then the % specific binding was calculated according to the equation (((y1−non-specific)/(total binding-non-specific))×100). Graphs were plotted with the % specific binding using XLfit, a curve fitting program that iteratively plots the data using Levenburg Marquardt algorithm. The single site competition analysis equation used was y=A+((B−A)/(+((x/C)^D))), where y is the % specific binding, A is the minimum y, B is the maximum y, C is the IC50, x is the log10 of the concentration of the competing compound and D is the slope of the curve (the Hill Coefficient). […] The affinity constant (Ki) was calculated using the Cheng-Prusoff equation KI =(IC50/1+([L]/Kd), where [L] is the concentration of radioligand and Kd is the dissociation constant of the radioligand at the receptor as determined by the saturation isotherm.

[2] = target: T2, human 5-HT2A serotonin receptor (Homo sapiens, UniProt P28223); assay: Radioligand binding, human 5-HT2A receptor ([3H]-ketanserin); details: second value of the cell; membranes of transfected HEK-293 EBNA cells, 1.1 nM [3H]-ketanserin; read-out: Ki(nM) D3/5HT2A/D2: 5HT2A
T2 construct: expressed in transfected cells; host or cells: HEK-293 EBNA cells (transient transfection), membrane preparation
Description: as §1, §2, §3, §4

[3] = target: T3, human D3 dopamine receptor (Homo sapiens, UniProt P35462); assay: Radioligand binding, human D3 receptor ([3H]-spiperone); details: first value of the cell; membranes of transfected HEK-293 EBNA cells, 0.5 nM [3H]-spiperone; read-out: Ki(nM) D3/5HT2A/D2: D3
T3 construct: expressed in transfected cells; host or cells: HEK-293 EBNA cells (transient transfection), membrane preparation
Description: as §1, §2, §3, §4

T3 sequence (P35462 whole entry): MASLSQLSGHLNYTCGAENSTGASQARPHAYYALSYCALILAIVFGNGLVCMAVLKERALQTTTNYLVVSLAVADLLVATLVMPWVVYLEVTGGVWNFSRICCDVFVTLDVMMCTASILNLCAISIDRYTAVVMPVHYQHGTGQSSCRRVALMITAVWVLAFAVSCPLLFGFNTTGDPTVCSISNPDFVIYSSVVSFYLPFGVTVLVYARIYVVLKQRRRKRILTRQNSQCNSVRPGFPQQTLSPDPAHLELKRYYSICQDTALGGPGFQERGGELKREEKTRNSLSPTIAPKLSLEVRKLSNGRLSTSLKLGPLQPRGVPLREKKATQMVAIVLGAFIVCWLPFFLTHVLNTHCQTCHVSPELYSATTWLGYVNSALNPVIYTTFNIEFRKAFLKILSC
T2 sequence (P28223 whole entry): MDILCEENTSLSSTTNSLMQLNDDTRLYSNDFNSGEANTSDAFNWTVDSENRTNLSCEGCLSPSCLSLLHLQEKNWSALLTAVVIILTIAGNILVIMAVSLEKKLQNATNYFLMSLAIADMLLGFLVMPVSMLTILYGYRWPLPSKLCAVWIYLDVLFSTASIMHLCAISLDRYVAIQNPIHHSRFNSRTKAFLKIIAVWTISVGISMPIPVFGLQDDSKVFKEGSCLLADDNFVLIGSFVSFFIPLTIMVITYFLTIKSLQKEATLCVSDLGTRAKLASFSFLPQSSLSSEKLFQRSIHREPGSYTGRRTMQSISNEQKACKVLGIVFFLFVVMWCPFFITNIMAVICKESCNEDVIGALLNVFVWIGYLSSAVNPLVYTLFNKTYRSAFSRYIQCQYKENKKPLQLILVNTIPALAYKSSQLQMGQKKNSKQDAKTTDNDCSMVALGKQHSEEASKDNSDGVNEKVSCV
T1 sequence (P14416 whole entry): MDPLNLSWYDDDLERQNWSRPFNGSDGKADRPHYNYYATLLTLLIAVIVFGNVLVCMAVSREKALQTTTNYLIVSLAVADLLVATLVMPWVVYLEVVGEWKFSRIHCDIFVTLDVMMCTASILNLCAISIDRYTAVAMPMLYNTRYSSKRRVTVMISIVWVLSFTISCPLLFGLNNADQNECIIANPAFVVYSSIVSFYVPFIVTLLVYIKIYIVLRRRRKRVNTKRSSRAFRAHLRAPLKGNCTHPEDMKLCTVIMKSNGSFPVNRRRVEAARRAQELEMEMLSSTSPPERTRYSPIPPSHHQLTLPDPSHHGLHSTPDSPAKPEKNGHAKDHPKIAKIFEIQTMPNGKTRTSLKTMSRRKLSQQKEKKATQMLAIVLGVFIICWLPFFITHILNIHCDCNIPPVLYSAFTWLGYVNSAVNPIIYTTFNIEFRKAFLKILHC

**Q.** Which results are given for `CN(C(=O)N[C@H]1CC[C@H](CCN2CCC(C(=O)c3ccc(F)cc3)CC2)CC1)c1ccc(Cl)cc1` [Example 42, Trans-1-(4-Chloro-phenyl)-3-(4-{2-[4-(4-fluoro-benzoyl)-piperidin-1-yl]-ethyl}-cyclohexyl)-1-methyl-urea]?
**A.** Ki [1]: 352 nM; Ki [2]: 11 nM; Ki [3]: 146 nM

**Q.** For `CN(C)C(=O)N[C@H]1CC[C@H](CCN2CCC(C(=O)c3ccc(F)cc3)CC2)CC1` [Example 42A7, Trans-3-(4-{2-[4-(4-Fluoro-benzoyl)-piperidin-1-yl]-ethyl}-cyclohexyl)-1,1-dimethyl-urea], which Ki [1] is on record?
**A.** Its Ki is 176 nM.

**Q.** And the Ki [2]?
**A.** The Ki was 26 nM.

**Q.** And the Ki [3]?
**A.** The Ki was 86 nM.

**Q.** For `COCCC(=O)N[C@H]1CC[C@H](CCN2CCC(F)(C(=O)c3ccc(F)cc3)CC2)CC1` [Example 50, N-trans (4-{2-[4-Fluoro-4-(4-fluoro-benzoyl)-piperidin-1-yl]-ethyl}-cyclohexyl)-3-methoxy-propionamide], which Ki [1] is on record?
**A.** Its Ki is 288 nM.

**Q.** What about the Ki [2] of the same compound?
**A.** The Ki was 2 nM.

**Q.** What about the Ki [3] of the same compound?
**A.** The Ki was 29 nM.

**Q.** With `Cc1nc(-c2cccc(C(=O)N[C@H]3CC[C@H](CCN4CCC(O)(C(=O)c5ccc(F)cc5)CC4)CC3)c2)no1` [Example 57, N-trans (4-{2-[4-(4-Fluoro-benzoyl)-4-hydroxy-piperidin-1-yl]-ethyl}-cyclohexyl)-3-(5-methyl-[1,2,4]oxadiazol-3-yl)-benzamide] as the compound, how does the Ki [1] read?
**A.** The Ki was 1330 nM.

**Q.** And the Ki [2]?
**A.** The Ki was 21 nM.

**Q.** And the Ki [3]?
**A.** Its Ki is 53 nM.

**Q.** `COCCC(=O)N[C@H]1CC[C@H](CCN2CCC(C(=O)c3ccc(F)cc3F)CC2)CC1` [Example 58, N-trans (4-{2-[4-(2,4-Difluoro-benzoyl)-piperidin-1-yl]-ethyl}-cyclohexyl)-3-methoxy-propionamide] was tested. Which Ki [1] did it give?
**A.** The Ki was 3540 nM.

**Q.** And the Ki [2]?
**A.** The Ki was 80 nM.

**Q.** And the Ki [3]?
**A.** The Ki was 19 nM.

**Q.** Which results are given for `O=C(CO)NC1CCC(CCN2CCC(C(=O)c3ccc(F)cc3F)CC2)CC1` (stereo not drawn) [Example 63A14, N-(4-{2-[4-(2,4-Difluoro-benzoyl)-piperidin-1-yl]-ethyl}-cyclohexyl)-2-hydroxy-acetamide]?
**A.** Ki [1]: 8540 nM; Ki [2]: 83 nM; Ki [3]: 44 nM

**Q.** Which results are given for `O=C(Nc1ccc(Cl)cc1)N[C@H]1CC[C@H](CCN2CCC(C(=O)c3ccc(F)cc3F)CC2)CC1` [Example 64, 1-(4-Chloro-phenyl)-3-trans (4-{2-[4-(2,4-difluoro-benzoyl)-piperidin-1-yl]-ethyl}-cyclohexyl)-urea]?
**A.** Ki [1]: 4000 nM; Ki [2]: 26 nM; Ki [3]: 4 nM

**Q.** Which Ki [1] does the source give for `CC(=O)N[C@H]1CC[C@H](CCN2CCC(C(=O)c3ccccc3Cl)CC2)CC1` [Example 72, N-trans (4-{2-[4-(2-Chloro-benzoyl)-piperidin-1-yl]-ethyl}-cyclohexyl)-acetamide] here?
**A.** The Ki was 2130 nM.

**Q.** What about the Ki [2] of the same compound?
**A.** The Ki was 26 nM.

**Q.** What about the Ki [3] of the same compound?
**A.** The Ki was 39 nM.

**Q.** Which Ki [1] does the source give for “Trans-1-(4-Chloro-phenyl)-3-(4-{2-[4-(4-fluoro-benzoyl)-piperidin-1-yl]-ethyl}-cyclohexyl)-urea [Example 39]” here?
**A.** Its Ki is 1840 nM.

**Q.** What about the Ki [2] of the same compound?
**A.** Its Ki is 3 nM.

**Q.** What about the Ki [3] of the same compound?
**A.** The Ki was 2 nM.

**Q.** Which Ki [1] does the source give for “Trans-1-(4-Ethoxy-phenyl)-3-(4-{2-[4-(4-fluoro-benzoyl)-piperidin-1-yl]-ethyl}-cyclohexyl)-urea [Example 40]” here?
**A.** Its Ki is 502 nM.

**Q.** What about the Ki [2] of the same compound?
**A.** Its Ki is 9 nM.

**Q.** What about the Ki [3] of the same compound?
**A.** Its Ki is 8 nM.
